Test system: QDJ1 (model quadruplex-duplex junction) (DNA, G4) GGTTGGCGCGAAGCATTCGCGGGTTGG
Assay: NMR ligand protection (53-compound library, HSQC difference)
Conditions: 20 mM KCl; 20 mM K2HPO4, pH 7.0; 30 μM DNA

binding: yes
Compound: NCc1cc(CN)cc(CN)c1
